ChEMBL document CHEMBL1201862, “PubChem BioAssay data set” (2004)
Calls of active or inactive are those of the source.

How the values were obtained:
cells [1] = type: functional, cell-based
cells [2] = type: functional, cell-based; remark: listed apart in the source
HeLa = assay: viability loss in HeLa cells – cell-based, 24 h, cherry-picked samples, cytotoxicity control, dose response (AID 504726); type: functional; details: Homo sapiens;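 note: potency for cytotoxicity as loss of luminescence signal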
Salmon testes DNA = assay: acridine orange-DNA binding displacement – biochemical, fluorescence polarization, cherry-picked samples, set 2, artefact control for KSHV LANA DNA-binding inhibitor project, dose response (AID 504727); parameters: species or system Salmonidae
cells [3] = type: functional
[4] = target: T1, Short transient receptor potential channel 4 (Mus musculus, UniProt Q9QUQ5); assay: potentiation of DAMGO-evoked TRPC4 calcium signal – cell-based, HEK293 TRPC4/mu-opioid, Fluo-4 calcium, EC20 DAMGO, dose response (AID 434941); type: functional
T1 sequence (Q9QUQ5 whole entry): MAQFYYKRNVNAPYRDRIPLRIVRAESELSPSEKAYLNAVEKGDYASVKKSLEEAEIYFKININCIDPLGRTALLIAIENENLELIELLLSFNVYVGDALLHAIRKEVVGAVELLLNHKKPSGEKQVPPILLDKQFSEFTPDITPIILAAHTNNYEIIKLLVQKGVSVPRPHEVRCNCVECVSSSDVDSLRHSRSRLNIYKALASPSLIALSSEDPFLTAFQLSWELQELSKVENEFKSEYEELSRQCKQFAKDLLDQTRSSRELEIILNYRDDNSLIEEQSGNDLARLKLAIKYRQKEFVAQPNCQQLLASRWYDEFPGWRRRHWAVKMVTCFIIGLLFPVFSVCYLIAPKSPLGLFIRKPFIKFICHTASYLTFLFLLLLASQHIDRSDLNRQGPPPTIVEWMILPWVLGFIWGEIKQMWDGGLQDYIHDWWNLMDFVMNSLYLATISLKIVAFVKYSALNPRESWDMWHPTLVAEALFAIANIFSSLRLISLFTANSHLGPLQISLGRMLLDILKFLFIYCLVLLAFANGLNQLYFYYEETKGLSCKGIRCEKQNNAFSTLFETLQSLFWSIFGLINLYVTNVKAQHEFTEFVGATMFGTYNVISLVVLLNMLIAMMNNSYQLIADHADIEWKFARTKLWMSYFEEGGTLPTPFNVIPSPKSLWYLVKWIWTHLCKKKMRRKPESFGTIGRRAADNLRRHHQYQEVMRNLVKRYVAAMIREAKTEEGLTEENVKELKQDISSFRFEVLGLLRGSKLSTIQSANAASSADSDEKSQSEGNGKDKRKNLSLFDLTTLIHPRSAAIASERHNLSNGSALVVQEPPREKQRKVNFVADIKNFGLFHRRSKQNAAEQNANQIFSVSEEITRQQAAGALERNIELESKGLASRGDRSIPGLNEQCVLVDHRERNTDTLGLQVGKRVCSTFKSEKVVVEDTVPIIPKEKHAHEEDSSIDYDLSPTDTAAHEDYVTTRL

[5] = target: Envelope glycoprotein gp160 (Human immunodeficiency virus 1, UniProt Q6QLK5); assay: cell-free HIV fusion peptide-binding blockers – biochemical, uHTS, fluorescence dequenching, […] (AID 1986)
Envelope glycoprotein gp160, sequence (Q6QLK5 whole entry, the tested form may be a part): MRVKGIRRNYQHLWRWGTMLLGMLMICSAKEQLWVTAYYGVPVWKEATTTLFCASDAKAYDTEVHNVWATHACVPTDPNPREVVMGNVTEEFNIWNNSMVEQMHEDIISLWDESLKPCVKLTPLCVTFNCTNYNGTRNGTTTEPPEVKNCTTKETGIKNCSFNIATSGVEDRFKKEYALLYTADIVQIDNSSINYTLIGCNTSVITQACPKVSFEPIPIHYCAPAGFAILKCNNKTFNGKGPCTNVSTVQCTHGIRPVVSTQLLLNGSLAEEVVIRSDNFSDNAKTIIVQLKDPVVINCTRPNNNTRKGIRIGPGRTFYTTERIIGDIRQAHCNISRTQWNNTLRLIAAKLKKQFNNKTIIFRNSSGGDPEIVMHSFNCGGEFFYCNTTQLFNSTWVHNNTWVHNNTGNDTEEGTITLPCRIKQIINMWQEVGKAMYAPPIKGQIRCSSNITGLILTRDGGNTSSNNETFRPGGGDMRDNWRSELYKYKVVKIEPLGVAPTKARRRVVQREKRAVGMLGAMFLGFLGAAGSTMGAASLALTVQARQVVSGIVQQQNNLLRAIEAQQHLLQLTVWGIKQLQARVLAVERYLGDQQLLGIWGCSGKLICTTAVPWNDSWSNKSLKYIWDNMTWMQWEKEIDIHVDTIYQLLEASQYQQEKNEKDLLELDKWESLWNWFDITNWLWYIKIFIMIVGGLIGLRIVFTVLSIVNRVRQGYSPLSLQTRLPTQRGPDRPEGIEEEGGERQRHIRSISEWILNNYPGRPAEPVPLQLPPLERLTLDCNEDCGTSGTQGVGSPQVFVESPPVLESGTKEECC

[6] = target: T1, Short transient receptor potential channel 4; assay: block of DAMGO-driven TRPC4 calcium entry – cell-based, HEK293 TRPC4/mu-opioid, Fluo-4 calcium, dose response (AID 434942); type: functional;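 note: potency of inhibitors blocking the TRPC4 calcium response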
Neutrophil collagenase = Neutrophil collagenase (Homo sapiens, UniProt P22894); assay: potency against MMP13, MMP2, MMP3, MMP14 – biochemical, probe development, late stage results, selectivity assay for MMP13 inhibitor project, late-stage follow-up, panel member MMP-8 [IC50 Assay] (AID 2067)
Neutrophil collagenase, sequence (P22894 whole entry): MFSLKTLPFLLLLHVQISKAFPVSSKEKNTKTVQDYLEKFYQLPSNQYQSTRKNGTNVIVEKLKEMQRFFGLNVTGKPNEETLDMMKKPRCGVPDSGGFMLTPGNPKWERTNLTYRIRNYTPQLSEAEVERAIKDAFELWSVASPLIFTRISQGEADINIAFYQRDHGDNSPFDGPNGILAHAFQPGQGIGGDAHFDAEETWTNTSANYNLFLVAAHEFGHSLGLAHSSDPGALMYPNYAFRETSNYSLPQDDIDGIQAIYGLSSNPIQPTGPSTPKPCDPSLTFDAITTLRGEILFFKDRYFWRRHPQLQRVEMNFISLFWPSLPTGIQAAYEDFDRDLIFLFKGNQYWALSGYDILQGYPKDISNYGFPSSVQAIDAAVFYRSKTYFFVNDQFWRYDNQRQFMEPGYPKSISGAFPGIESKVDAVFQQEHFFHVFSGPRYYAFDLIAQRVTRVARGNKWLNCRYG

Collagenase 3 = Collagenase 3 (Homo sapiens, UniProt P45452); assay: potency against MMP13, MMP2, MMP3, MMP14 – biochemical, probe development, late stage results, selectivity assay for MMP13 inhibitor project, late-stage follow-up, panel member MMP-13 [IC50 Assay] (AID 2067)
[7] = target: T2, Tyrosine-protein phosphatase non-receptor type 7 (Homo sapiens, UniProt P35236); assay: redox-active compounds inhibiting HePTP phosphatase – biochemical, fluorescence, mechanism study (AID 2068); type: functional
T2 sequence (P35236 whole entry): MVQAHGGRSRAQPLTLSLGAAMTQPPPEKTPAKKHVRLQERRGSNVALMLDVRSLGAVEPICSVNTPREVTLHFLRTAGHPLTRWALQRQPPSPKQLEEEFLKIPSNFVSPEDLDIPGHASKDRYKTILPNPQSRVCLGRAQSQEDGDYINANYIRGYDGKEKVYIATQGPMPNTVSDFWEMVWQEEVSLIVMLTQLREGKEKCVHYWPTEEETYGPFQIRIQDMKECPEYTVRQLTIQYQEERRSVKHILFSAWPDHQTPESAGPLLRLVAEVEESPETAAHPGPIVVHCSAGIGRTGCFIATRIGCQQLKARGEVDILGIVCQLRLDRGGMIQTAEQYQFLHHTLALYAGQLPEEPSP

[8] = target: T3, Dual specificity protein phosphatase 6 (Rattus norvegicus, UniProt Q64346); type: functional;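 note: confirmatory in vitro dose-response testing of MKP-3 inhibition; recombinant His-tagged MKP-3 made in E. coli BL21 with OMFP substrate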
T3 sequence (Q64346 whole entry): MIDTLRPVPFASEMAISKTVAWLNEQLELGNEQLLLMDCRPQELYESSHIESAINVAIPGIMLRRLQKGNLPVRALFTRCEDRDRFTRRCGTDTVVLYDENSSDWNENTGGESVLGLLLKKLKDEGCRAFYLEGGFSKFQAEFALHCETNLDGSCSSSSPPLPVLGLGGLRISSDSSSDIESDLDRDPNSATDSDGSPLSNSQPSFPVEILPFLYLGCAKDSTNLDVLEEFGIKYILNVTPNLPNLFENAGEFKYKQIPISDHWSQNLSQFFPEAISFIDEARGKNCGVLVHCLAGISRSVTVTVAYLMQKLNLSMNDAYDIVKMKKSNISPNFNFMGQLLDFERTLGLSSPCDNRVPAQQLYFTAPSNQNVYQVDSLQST

[9] = target: Melanin-concentrating hormone receptor 1 (Homo sapiens, UniProt Q99705); assay: Late-stage fluorescence-based counterscreen for antagonists of the G-protein coupled receptor 7 (GPR7): cell-based dose response assay to identify antagonists of the melanin-concentrating hormone receptor 1 (MCHR1). [Related pubchem assays (depositor defined):AID1861, AID1880, AID1952, AID2148, AID2251, AID2257, AID485339]; type: functional;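 note: stimulated with 30 nM MCH peptide agonist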
Melanin-concentrating hormone receptor 1, sequence (Q99705 whole entry): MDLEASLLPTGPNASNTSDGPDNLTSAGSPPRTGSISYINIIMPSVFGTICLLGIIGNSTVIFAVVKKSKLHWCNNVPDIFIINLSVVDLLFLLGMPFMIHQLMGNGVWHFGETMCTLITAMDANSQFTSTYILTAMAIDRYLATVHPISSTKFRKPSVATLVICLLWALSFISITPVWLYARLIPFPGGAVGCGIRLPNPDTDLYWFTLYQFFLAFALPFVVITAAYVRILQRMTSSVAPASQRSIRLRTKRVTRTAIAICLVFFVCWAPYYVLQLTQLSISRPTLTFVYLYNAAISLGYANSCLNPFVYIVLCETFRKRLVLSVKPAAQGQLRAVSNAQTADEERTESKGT

[10] = target: T4, Neuropeptides B/W receptor type 1 (Homo sapiens, UniProt P48145); assay: human NPBW1 receptor blockade, IC50 – cell-based, fluorescence, dose response, late-stage follow-up (AID 463251); type: functional
T4 sequence (P48145 whole entry): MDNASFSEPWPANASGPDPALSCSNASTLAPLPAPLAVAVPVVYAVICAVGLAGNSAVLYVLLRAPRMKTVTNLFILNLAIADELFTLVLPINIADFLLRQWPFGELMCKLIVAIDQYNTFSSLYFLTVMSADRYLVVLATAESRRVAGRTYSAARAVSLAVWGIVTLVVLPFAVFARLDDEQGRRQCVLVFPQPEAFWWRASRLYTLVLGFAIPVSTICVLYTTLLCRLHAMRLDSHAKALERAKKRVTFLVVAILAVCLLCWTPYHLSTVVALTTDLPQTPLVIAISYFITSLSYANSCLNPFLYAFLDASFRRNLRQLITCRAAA

Mu-type opioid receptor = Mu-type opioid receptor (Homo sapiens, UniProt P35372); assay: SAR Analysis of Antagonists of the MOR Receptor using an Image-Based Assay - Set 3. [Related pubchem assays (depositor defined):AID1777, AID1785, AID1786, AID1966, AID2133, AID2136, AID2284, AID2285, AID2420]; type: functional
Mu-type opioid receptor, sequence (P35372 whole entry): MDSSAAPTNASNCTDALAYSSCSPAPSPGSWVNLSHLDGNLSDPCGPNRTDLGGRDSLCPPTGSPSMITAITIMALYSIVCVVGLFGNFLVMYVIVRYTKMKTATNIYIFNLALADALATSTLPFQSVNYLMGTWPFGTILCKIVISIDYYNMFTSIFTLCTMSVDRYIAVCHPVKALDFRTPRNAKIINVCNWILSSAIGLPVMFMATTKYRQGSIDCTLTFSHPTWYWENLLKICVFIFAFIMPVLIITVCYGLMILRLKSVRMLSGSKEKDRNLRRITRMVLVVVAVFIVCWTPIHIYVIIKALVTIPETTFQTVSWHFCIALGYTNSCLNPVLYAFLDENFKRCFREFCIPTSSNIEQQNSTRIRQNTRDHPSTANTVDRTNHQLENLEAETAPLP

[11] = target: T5, Kappa-type opioid receptor (Homo sapiens, UniProt P41145); assay: SAR analysis of small molecule antagonists of the kappa opioid receptor via a luminescent beta-arrestin assay - Set 6. [Related pubchem assays (depositor defined):AID1777, AID1778, AID1785, AID1786, AID1966, AID2133, AID2136, AID2285]; type: functional
T5 sequence (P41145 whole entry): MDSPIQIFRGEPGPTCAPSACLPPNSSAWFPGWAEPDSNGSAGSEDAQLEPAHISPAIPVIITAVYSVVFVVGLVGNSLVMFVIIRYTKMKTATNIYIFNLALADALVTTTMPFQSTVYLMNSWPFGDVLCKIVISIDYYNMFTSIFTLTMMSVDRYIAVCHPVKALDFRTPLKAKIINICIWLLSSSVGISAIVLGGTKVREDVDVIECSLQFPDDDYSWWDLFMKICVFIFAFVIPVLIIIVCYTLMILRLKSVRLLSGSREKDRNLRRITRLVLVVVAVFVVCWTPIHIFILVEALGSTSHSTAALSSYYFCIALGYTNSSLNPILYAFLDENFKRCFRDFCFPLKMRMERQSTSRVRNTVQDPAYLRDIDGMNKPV

[12] = target: Delta-type opioid receptor (Homo sapiens, UniProt P41143); assay: SAR Analysis of Antagonists of the DOR Receptor using an Image-Based Assay - Set 3. [Related pubchem assays (depositor defined):AID1777, AID1785]; type: functional;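 note: U2OS cells expressing DOR1 and beta-arrestin GFP stimulated with 100 nM SNC80; imaging of GFP-tagged beta-arrestin moving into spots after receptor activation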
Delta-type opioid receptor, sequence (P41143 whole entry): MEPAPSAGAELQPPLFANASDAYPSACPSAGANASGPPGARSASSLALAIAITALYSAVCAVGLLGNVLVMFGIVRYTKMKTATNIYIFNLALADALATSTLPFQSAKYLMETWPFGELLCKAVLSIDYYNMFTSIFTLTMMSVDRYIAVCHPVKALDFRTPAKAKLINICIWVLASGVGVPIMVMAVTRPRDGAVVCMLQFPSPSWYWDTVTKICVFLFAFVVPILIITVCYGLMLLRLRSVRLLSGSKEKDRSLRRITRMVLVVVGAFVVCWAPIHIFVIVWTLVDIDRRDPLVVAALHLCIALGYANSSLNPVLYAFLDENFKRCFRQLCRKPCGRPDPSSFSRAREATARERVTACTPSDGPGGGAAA

[13] = target: T5, Kappa-type opioid receptor; assay: SAR analysis of small molecule antagonists of the kappa opioid receptor via a luminescent beta-arrestin assay - Set 3. [Related pubchem assays (depositor defined):AID1777, AID1778, AID1785, AID1786, AID1966, AID2133, AID2136, AID2285, AID2495]; type: functional
[14] = target: T5, Kappa-type opioid receptor; assay: SAR analysis of Antagonists of the Kappa Opioid Receptor (KOR) using an Image-Based Assay - Set 4. [Related pubchem assays (depositor defined):AID1777, AID1785]; type: functional
[15] = NIH-3T3 fibroblast cytotoxicity, dose response, cytotoxicity control, cell-based, fluorescence, Alamar Blue, secondary assay (AID 2327); type: functional;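 note: NIH-3T3 mouse fibroblasts cultured with fluconazole at 8 µg/mL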
[16] = fluconazole-exposed Candida albicans growth modulators – fluorescence, retest, confirmation (AID 2467); type: functional, cell-based
[17] = target: T6, Serine/threonine-protein phosphatase (Candida dubliniensis (strain CD36 / CBS 7987 / NCPF 3949 / NRRLY-17841) (Yeast), UniProt B9W6M3); assay: blockers of CaCl2-induced CDRE-lacZ signaling – S. cerevisiae, luminescence, secondary, dose response (AID 2388); type: functional, cell-based;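 note: yeast reporter cells carrying a calcineurin-responsive lacZ construct stimulated with calcium chloride; luminescent beta-galactosidase reporter signal in whole cells rather than isolated phosphatase activity; potency for inhibition where a drop in reporter signal means calcineurin blockade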
T6 sequence (B9W6M3 whole entry): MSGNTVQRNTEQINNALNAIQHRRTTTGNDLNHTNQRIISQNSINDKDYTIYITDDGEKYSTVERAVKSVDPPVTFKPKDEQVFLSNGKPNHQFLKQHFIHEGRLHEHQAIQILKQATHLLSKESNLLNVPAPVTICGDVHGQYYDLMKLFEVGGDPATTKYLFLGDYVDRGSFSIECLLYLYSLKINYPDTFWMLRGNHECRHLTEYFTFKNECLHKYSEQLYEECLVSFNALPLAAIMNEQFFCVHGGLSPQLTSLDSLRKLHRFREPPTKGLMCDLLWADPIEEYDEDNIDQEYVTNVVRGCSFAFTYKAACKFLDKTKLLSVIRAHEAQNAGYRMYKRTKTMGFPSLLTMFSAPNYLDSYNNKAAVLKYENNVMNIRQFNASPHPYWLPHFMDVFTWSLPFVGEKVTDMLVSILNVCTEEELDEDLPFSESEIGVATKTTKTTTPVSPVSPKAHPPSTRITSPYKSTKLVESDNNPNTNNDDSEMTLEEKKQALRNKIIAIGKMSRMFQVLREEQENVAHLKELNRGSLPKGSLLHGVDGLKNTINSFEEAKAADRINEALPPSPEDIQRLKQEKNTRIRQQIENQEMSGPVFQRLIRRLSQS

[18] = target: T5, Kappa-type opioid receptor; type: functional
Beta-galactosidase [19] = target: T7, Beta-galactosidase (Escherichia coli, UniProt Q8VNN2); type: functional
T7 sequence (Q8VNN2 whole entry): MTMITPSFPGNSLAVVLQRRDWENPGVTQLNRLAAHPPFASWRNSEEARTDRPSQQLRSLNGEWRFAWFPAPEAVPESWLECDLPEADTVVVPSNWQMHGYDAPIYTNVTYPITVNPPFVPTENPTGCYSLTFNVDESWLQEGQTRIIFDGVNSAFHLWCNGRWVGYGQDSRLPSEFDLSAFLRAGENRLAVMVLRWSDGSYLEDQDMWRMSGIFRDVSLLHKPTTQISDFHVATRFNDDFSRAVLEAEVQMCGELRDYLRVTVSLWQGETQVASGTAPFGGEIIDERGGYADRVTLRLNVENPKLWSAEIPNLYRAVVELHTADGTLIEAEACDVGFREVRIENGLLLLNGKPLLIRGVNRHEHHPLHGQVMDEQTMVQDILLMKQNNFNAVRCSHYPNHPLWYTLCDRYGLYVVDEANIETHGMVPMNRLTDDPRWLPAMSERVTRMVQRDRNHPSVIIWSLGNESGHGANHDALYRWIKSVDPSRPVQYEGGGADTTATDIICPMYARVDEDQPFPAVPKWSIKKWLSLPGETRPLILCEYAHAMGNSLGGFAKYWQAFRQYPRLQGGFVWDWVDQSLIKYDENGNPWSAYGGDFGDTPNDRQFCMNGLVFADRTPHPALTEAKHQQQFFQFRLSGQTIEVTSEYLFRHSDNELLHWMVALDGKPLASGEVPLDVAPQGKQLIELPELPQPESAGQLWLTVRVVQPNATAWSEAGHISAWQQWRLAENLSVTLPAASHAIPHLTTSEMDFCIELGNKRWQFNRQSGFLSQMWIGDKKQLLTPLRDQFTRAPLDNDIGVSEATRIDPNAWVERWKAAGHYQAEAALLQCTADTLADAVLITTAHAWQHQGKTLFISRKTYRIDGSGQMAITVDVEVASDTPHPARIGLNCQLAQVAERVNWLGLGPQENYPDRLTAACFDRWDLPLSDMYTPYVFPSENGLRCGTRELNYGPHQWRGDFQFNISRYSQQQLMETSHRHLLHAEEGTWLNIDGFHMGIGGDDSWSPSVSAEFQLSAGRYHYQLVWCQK

[20] = target: T5, Kappa-type opioid receptor; type: functional; remark: listed apart in the source
Nonstructural protein 1 = Nonstructural protein 1 (Influenza A virus, UniProt Q194T2); type: functional, Influenza A virus (A/California/07/2009(H1N1))
Nonstructural protein 1, sequence (Q194T2 whole entry): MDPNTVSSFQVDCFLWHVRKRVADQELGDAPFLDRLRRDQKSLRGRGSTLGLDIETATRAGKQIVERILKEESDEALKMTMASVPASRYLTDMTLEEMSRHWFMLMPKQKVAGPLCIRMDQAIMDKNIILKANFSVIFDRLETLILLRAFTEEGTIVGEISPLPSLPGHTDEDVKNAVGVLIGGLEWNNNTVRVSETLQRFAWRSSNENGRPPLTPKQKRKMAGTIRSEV

[21] = target: Heat shock protein HSP 90-alpha (Homo sapiens, UniProt P07900); type: functional, organism-based
Vero = assay: viability of Vero cells under compound – cytotoxicity control for flavivirus capping enzyme inhibitors (AID 588742); type: functional; details: Chlorocebus sabaeus
INS1 = assay: INS-1E survival protection against cytokine death – cell-based, luminescence, retest, dose response (AID 449756); type: functional; details: Rattus norvegicus;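 note: cell death triggered by IL-1 beta plus TNF-alpha plus IFN-gamma mixture; protective hits raise ATP signal compared with cytokine alone wells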
[22] = target: ATP-dependent molecular chaperone HSP82 (Candida albicans (strain WO-1) (Yeast), UniProt C4YTQ8); assay: steroid-induced GRE reporter decrease in yeast – S. cerevisiae, luminescence, Hsp90 inhibitor project, dose response (AID 2400); type: functional, cell-based;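 note: beta-galactosidase luminescence from glucocorticoid response element reporter as proxy for Hsp90 function; inhibitor potency where signal loss means Hsp90 inhibition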
ATP-dependent molecular chaperone HSP82, sequence (C4YTQ8 whole entry): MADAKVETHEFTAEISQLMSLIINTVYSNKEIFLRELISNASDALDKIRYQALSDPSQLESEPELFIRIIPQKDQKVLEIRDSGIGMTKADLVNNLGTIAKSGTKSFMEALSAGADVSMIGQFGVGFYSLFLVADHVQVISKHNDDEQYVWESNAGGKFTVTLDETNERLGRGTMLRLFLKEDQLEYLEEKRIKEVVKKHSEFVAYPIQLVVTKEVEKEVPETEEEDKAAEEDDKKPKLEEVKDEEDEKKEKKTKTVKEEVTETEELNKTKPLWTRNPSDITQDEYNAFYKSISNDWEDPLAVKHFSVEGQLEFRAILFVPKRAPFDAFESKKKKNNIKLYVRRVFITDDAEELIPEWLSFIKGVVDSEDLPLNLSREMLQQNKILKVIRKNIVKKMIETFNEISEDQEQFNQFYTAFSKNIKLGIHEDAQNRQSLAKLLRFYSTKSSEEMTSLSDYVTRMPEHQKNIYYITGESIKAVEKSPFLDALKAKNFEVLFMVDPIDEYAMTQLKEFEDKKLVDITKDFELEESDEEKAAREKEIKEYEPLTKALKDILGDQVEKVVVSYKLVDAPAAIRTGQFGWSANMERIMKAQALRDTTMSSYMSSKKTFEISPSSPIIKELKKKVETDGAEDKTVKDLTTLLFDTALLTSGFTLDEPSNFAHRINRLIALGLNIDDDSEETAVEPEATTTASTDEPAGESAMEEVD

[23] = mammalian cell viability loss – Alamar Blue, dry powder, cytotoxicity control for antifungal single agent project, dose response (AID 602188); type: functional, cell-based
Beta-galactosidase [24] = target: T7, Beta-galactosidase; assay: Dose response counterscreen for EBI2 assay utilizing the enzyme, b-galactosidase.; type: functional

## CCOC(=O)c1c(C)nc2cc(C)ccn12
Cells [1]
  EC50: > 350 µM (not active)
Cells [2]
  EC50: > 350 µM (not active)
HeLa
  AC50: 69.7 µM (active)
Salmon testes DNA
  AC50: 285 µM (active)
Cells [3]
  IC50: 28.4 µM (active)

## CCOC(=O)C(O)(c1ccc(NC(=S)NC(=O)c2ccc(Cl)cc2Cl)c(C)c1)C(F)(F)F (configuration not stated)
[4]
  EC50: 3.35 µM (active)

## CCOc1ccc(NC(=O)c2cnn3c(O)cc(C4CCN(C(=O)OC(C)(C)C)CC4)nc23)cc1
[5]
  IC50: > 99 µM (inactive)
[6]
  EC50: 4.22 µM (active)

## CCCCSc1nc(O)c2c(n1)CCC2
Neutrophil collagenase
  IC50: > 39.8 µM (active)
Collagenase 3
  IC50: > 39.8 µM (active)

## COc1cc(C(=S)NCc2ccccc2)ccc1O
[7]
  IC50: 0.665 µM (active)
[8]
  IC50: > 100 µM (inactive)

## CCOc1ccc(Oc2cnn(-c3ccc(C)cc3)c(=O)c2Cl)cc1
[9]
  IC50: 18.2 µM (inactive)
[10]
  IC50: 6.3 µM (active)

## O=C(Cn1c(=O)c2cccn2c2cc(Br)cnc21)NCCCN1CCN(c2ccc3c(c2)OCO3)CC1
Mu-type opioid receptor
  IC50: > 32 µM (inactive)
[11]
  IC50: 2.42 µM (active)
[12]
  IC50: > 32 µM (inactive)
[13]
  IC50: 3.81 µM (active)
[14]
  IC50: 0.147 µM (active)

## C/C(=N\NC(=O)c1cc2ccccc2cc1O)c1ccccn1
[15]
  EC50: > 150 µM (inactive)
[16]
  EC50: 1.02 µM (active)
[17]
  EC50: > 180 µM (inactive)
[18]
  IC50: 2.14 µM (active)
Beta-galactosidase [19]
  EC50: > 31.5 µM (inactive)
[20]
  IC50: > 32 µM
Nonstructural protein 1
  IC50: 3.77 µM (active)
[21]
  AC50: 6.63 µM (active)
Vero
  CC50: 1.93 µM (active)
INS1
  AC50: 0.958 µM (active)
[22]
  EC50: 4.08 µM (active)
[23]
  AC50: 0.729 µM (active)
Beta-galactosidase [24]
  IC50: 136 µM (inactive)
